Test results reported in PMC9213561, “3-nitroimidazo[1,2-b]pyridazine as a novel scaffold for antiparasitics with sub-nanomolar anti-Giardia lamblia activity” (International Journal for Parasitology: Drugs and Drug …, 2022).
Counter-ions that a name gives are not always drawn. Like-named read-outs stand apart in the source and are kept apart here.

Tests used:
Plasmodium falciparum = experiment: Growth inhibition of P. falciparum; assay type: cell-based
Experimental: (§1) G. lamblia trophozoites (WBC6) were seeded into 96-well-plates in 0.2 mL […]-medium containing 10^3 trophozoites per well in the presence of the compounds dissolved in dimethyl sulfoxide (DMSO, final concentration 0.25%) or with DMSO as a solvent control and incubated for 72 h at 37 °C in an anaerobic chamber (80% N2, 10% H2, 10% CO2). Then, plates were centrifuged (2 min, 1000 rpm), medium was removed, and cells were washed once with PBS containing 1 g/L glucose. Then, PBS-glucose containing 10 mg/L resazurin was added, and plates were incubated for up to 5 h at 37 °C. Fluorescence reading (ex 530 nm/em 590 nm) was performed at various time points, and the linear increase of fluorescence was used as a marker for cell viability. IC50 values were calculated using the logit-log algorithm and are given as mean values with 95%-confidence intervals ([[…], 2019]). The assays for growth inhibition of T. b. brucei, T. cruzi, L. infantum, P. falciparum and MRC-5 (human lung fibroblasts MRC-5SV40) were previously described ([Blaazer et al., 2014]). PDE activity was determined exactly as described ([de Heuvel et al., 2021]; [Kunz et al., 2005], [2017b]). All assays were carried out in triplicates and no more than 20% substrate was hydrolyzed in all reactions. Compounds were dissolved in DMSO and the final DMSO concentration was 1% in all reaction mixes. Control reactions with DMSO alone were always included. Data were analyzed using the GraphPad Prism software package (v7.0, GraphPad, San Diego).

Leishmania infantum = experiment: Growth inhibition of L. infantum; assay type: cell-based; conditions: mean ± standard deviation, n ≥ 2
Experimental: (§2) G. lamblia trophozoites (WBC6) were seeded into 96-well-plates in 0.2 mL Keister-medium containing 10^3 trophozoites per well in the presence of the compounds dissolved in dimethyl sulfoxide (DMSO, final concentration 0.25%) or with DMSO as a solvent control and incubated for 72 h at 37 °C in an anaerobic chamber (80% N2, 10% H2, 10% CO2). Then, plates were centrifuged (2 min, 1000 rpm), medium was removed, and cells were washed once with PBS containing 1 g/L glucose. Then, PBS-glucose containing 10 mg/L resazurin was added, and plates were incubated for up to 5 h at 37 °C. Fluorescence reading (ex 530 nm/em 590 nm) was performed at various time points, and the linear increase of fluorescence was used as a marker for cell viability. IC50 values were calculated using the logit-log algorithm and are given as mean values with 95%-confidence intervals ([Müller et al., 2020]; [Müller and Hemphill, 2013]; [Müller and Müller, 2019]). The assays for growth inhibition of T. b. brucei, T. cruzi, L. infantum, P. falciparum and MRC-5 (human lung fibroblasts MRC-5SV40) were previously described ([Blaazer et al., 2014]). PDE activity was determined exactly as described ([de Heuvel et al., 2021]; [Kunz et al., 2005], [2017b]). All assays were carried out in triplicates and no more than 20% substrate was hydrolyzed in all reactions. Compounds were dissolved in DMSO and the final DMSO concentration was 1% in all reaction mixes. Control reactions with DMSO alone were always included. Data were analyzed using the GraphPad Prism software package (v7.0, GraphPad, San Diego).

Trypanosoma cruzi = experiment: Growth inhibition of T. cruzi; assay type: cell-based; conditions: mean ± standard deviation, n ≥ 2
Experimental: as §2

[1] = tested on: Trypanosoma brucei brucei; experiment: Growth inhibition of T. b. brucei; assay type: cell-based; conditions: mean ± standard deviation, n ≥ 2
Experimental: as §2

[2] = tested on: MRC-5 (human lung fibroblasts MRC-5SV40); experiment: Cytotoxicity on MRC-5 cells; assay type: cell-based
Experimental: as §1

[3] = tested on: G. lamblia trophozoites (WBC6); experiment: Growth inhibition of G. lamblia trophozoites (WBC6), resazurin viability read-out; assay type: cell-based, Giardia lamblia; conditions: for IC50: Giardia duodenalis, WBC6 trophozoites, 72 h, anaerobic, mean ± standard error (95% CI, logit-log), quadruplicates, read-out: IC50 (nM) G.l.
Experimental: as §2
Figure S67. Representative drug susceptibility curves of G. lamblia WBC6. Trophozoites were grown anaerobically in the presence of various concentrations of 17 (red), 29 (blue) and the reference compound metronidazole (MET, black). After 72 h, growth of cells was monitored by a cell viability assay based on the reduction of resazurin to a pink fluorescent product. Measured fluorescence units were normalized to the DMSO control. Data points and error bars represent mean and standard error of 4 replicates.

[4] = mean ± standard deviation, n ≥ 2, read-out: IC50 (µM) P.f.
[5] = MRC5, mean ± standard deviation, n ≥ 2, read-out: IC50 (nM) MRC-5
[6] = MRC5, Table S1, mean ± standard deviation, n ≥ 2, read-out: IC50 (µM) MRC-5

Row | IC50 (Plasmodium falciparum; [4]) [µM] | IC50 (Leishmania infantum) [µM] | IC50 (Trypanosoma cruzi) [µM] | IC50 [1] [µM] | IC50 [3] [nM] | Structure (SMILES) | IC50 [2, 5] [nM] | anti-Giardia activity (in words) [3] | difference in inhibiting growth of G. lamblia ([3]; 31 (non-nitro analogue) versus 23) | IC50 [2, 6] [nM] | IC50 (Plasmodium falciparum; read-out: IC50 (µM) P.f.) [µM]
1 | > 64 | > 64 | > 64 | > 64 | 2.3 ± 0.4 | O=[N+]([O-])c1cnc2ccc(N3CCCC3)nn12 [Compound 22, 3-Nitro-6-(pyrrolidin-1-yl)imidazo[1,2-b]pyridazine] | > 64000 | – | – | – | –
2 | > 64 | > 64 | > 64 | > 64 | 8.2 ± 1 | O=[N+]([O-])c1cnc2ccc(N3CCC(c4ccccc4)CC3)nn12 [Compound 26, 3-Nitro-6-(4-phenylpiperidin-1-yl)imidazo[1,2-b]pyridazine] | > 64000 | – | – | – | –
3 | > 64 | > 64 | 38.4 ± 3.2 | > 64 | > 10000 | c1cn2nc(N3CCCCC3)ccc2n1 [Compound 31, 6-(Piperidin-1-yl)imidazo[1,2-b]pyridazine] | > 64000 | inactive | > 2,500 folds | – | –
4 | 23.4 ± 7.2 | > 64 | 8.6 ± 0.2 | 27.6 ± 4.2 | 0.5 ± 0.1 | O=[N+]([O-])c1cnc2ccc(N3CCC(Cc4ccccc4)CC3)nn12 [Compound 28, 6-(4-Benzylpiperidin-1-yl)-3-nitroimidazo[1,2-b]pyridazine] | 7960 | – | – | 8000 ± 200 | –
5 | 1.1 ± 0.5 | 30.6 ± 2.3 | 11.2 ± 7.9 | 1.4 ± 0.4 | 2.8 ± 0.8 | COc1ccccc1COc1cc(C2=NN(C3CCN(c4ccc5ncc([N+](=O)[O-])n5n4)CC3)C(=O)[C@H]3CC=CC[C@@H]23)ccc1OC (relative stereo) [Compound 16, cis-4-(4-Methoxy-3-((2-methoxybenzyl)oxy)phenyl)-2-(1-(3-nitroimidazo[1,2-b]pyridazin-6-yl)piperidin-4-yl)-4a,5,8,8a-tetrahydrophthalazin-1(2H)-one] | 49000 | – | – | 48900 ± 21400 | –
6 | 3 ± 1.9 | 25.9 ± 24.4 | 2.2 | 2.1 | 9.3 ± 0.6 | COc1ccc(C2=NN(C3CCN(c4ccc5ncc([N+](=O)[O-])n5n4)CC3)C(=O)[C@H]3CC=CC[C@@H]23)cc1OC1CCCC1 (relative stereo) [Compound 12, cis-4-(3-(Cyclopentyloxy)-4-methoxyphenyl)-2-(1-(3-nitroimidazo[1,2-b]pyridazin-6-yl)piperidin-4-yl)-4a,5,8,8a-tetrahydrophthalazin-1(2H)-one] | > 64000 | – | – | – | –
7 | 2.1 ± 0.8 | 8.1 | 2.1 | 2.2 | 6.8 ± 1.5 | COc1ccc(C2=NN(C3CCN(c4ccc5ncc([N+](=O)[O-])n5n4)CC3)C(=O)[C@H]3CC=CC[C@@H]23)cc1OCc1cccnc1 (relative stereo) [Compound 15, cis-4-(4-Methoxy-3-(pyridin-3-ylmethoxy)phenyl)-2-(1-(3-nitroimidazo[1,2-b]pyridazin-6-yl)piperidin-4-yl)-4a,5,8,8a-tetrahydrophthalazin-1(2H)-one] | 15000 | – | – | 14900 ± 11500 | –
8 | > 64 | > 64 | 32.3 ± 1.1 | > 64 | 3.6 ± 0.8 | O=[N+]([O-])c1cnc2ccc(N3CCCCC3)nn12 [Compound 23, 3-Nitro-6-(piperidin-1-yl)imidazo[1,2-b]pyridazine] | 28100 | – | – | – | –
9 | > 64 | > 64 | > 64 | > 64 | 22 ± 3 | CN(C)c1ccc2ncc([N+](=O)[O-])n2n1 [Compound 21, N,N-Dimethyl-3-nitroimidazo[1,2-b]pyridazin-6-amine] | > 64000 | – | – | – | –
10 | > 64 | 11.7 ± 1.4 | 18.9 ± 13.9 | 34.4 ± 2.4 | 1.1 ± 0.2 | O=C(c1ccccc1)C1CCN(c2ccc3ncc([N+](=O)[O-])n3n2)CC1 [Compound 29, (1-(3-Nitroimidazo[1,2-b]pyridazin-6-yl)piperidin-4-yl)(phenyl)methanone] | > 64000 | – | – | – | –
11 | 0.7 ± 0.5 | 32.5 | 31.8 ± 12.1 | > 64 | 1 ± 0.5 | COc1cccc(COc2cc(C3=NN(C4CCN(c5ccc6ncc([N+](=O)[O-])n6n5)CC4)C(=O)[C@H]4CC=CC[C@@H]34)ccc2OC)c1 (relative stereo) [Compound 14, cis-4-(4-Methoxy-3-((3-methoxybenzyl)oxy)phenyl)-2-(1-(3-nitroimidazo[1,2-b]pyridazin-6-yl)piperidin-4-yl)-4a,5,8,8a-tetrahydrophthalazin-1(2H)-one] | > 64000 | – | – | – | –
12 | > 64 | 35.3 ± 4 | > 64 | > 64 | 0.7 ± 0.1 | O=[N+]([O-])c1cnc2ccc(N3CCN(c4ccccc4)CC3)nn12 [Compound 27, 3-Nitro-6-(4-phenylpiperazin-1-yl)imidazo[1,2-b]pyridazine] | > 64000 | – | – | – | –
13 | – | – | – | 0.05 ± 0.02 | – | Cc1ccc(C(=O)Nc2ccc(S(=O)(=O)O)c3cc(S(=O)(=O)O)cc(S(=O)(=O)O)c23)cc1NC(=O)c1cccc(NC(=O)Nc2cccc(C(=O)Nc3cc(C(=O)Nc4ccc(S(=O)(=O)O)c5cc(S(=O)(=O)O)cc(S(=O)(=O)O)c45)ccc3C)c2)c1 [Suramine, suramin, reference compound] | – | – | – | – | –
14 | – | 10.3 ± 1.3 | – | – | – | CCCCCCCCCCCCCCCCOP(=O)([O-])OCC[N+](C)(C)C [Miltefosine, miltefosine, reference compound] | – | – | – | – | –
15 | – | – | – | – | 800 ± 100 | Cc1ncc([N+](=O)[O-])n1CCO [metronidazole, reference compound] | – | – | – | – | –
16 | > 64 | 46.9 ± 5.5 | 29.7 ± 5.7 | > 64 | 10.3 ± 1.5 | COc1ccc(CN(C)c2ccc3ncc([N+](=O)[O-])n3n2)cc1 [Compound 30, N-(4-Methoxybenzyl)-N-methyl-3-nitroimidazo[1,2-b]pyridazin-6-amine] | > 64000 | – | – | – | –
17 | – | – | 2.5 ± 0.4 | – | – | O=C(Cn1ccnc1[N+](=O)[O-])NCc1ccccc1 [benznidazole, reference compound] | – | – | – | – | –
18 | – | – | – | – | – | CCN(CC)CCCC(C)Nc1ccnc2cc(Cl)ccc12 (stereo not shown) [Chloroquine, chloroquine, reference compound] | – | – | – | – | 0.1 ± 0.03

Row | Structure (SMILES) | IC50 (Plasmodium falciparum; [4]) [µM] | IC50 (Leishmania infantum) [µM] | IC50 (Trypanosoma cruzi) [µM] | IC50 [1] [µM] | IC50 [3] [nM] | IC50 [2, 5] [nM] | anti-Giardia activity (in words) [3] | difference in inhibiting growth of G. lamblia ([3]; 31 (non-nitro analogue) versus 23) | IC50 [2, 6] [nM] | IC50 (Plasmodium falciparum; read-out: IC50 (µM) P.f.) [µM]
19 | COc1ccc(C2=NN(C3CCN(c4ccc5ncc([N+](=O)[O-])n5n4)CC3)C(=O)[C@H]3CC=CC[C@@H]23)cc1OCc1cccc([N+](=O)[O-])c1 (relative stereo) [Compound 13, cis-4-(4-Methoxy-3-((3-nitrobenzyl)oxy)phenyl)-2-(1-(3-nitroimidazo[1,2-b]pyridazin-6-yl)piperidin-4-yl)-4a,5,8,8a-tetrahydrophthalazin-1(2H)-one] | 1.6 ± 0.7 | 32.5 | > 64 | > 64 | 1.2 ± 0.4 | > 64000 | – | – | – | –
20 | CN1CCN(c2ccc3ncc([N+](=O)[O-])n3n2)CC1 [Compound 24, 6-(4-Methylpiperazin-1-yl)-3-nitroimidazo[1,2-b]pyridazine formate] | > 64 | > 64 | 33.5 ± 1.1 | > 64 | 144 ± 31 | > 64000 | – | – | – | –
